Laboratory results reported in patent publication US10947201B2, “Certain chemical entities, compositions, and methods” (NEUPHARMA, INC., priority 2015, dated 2021).

Columns and labels:
[1] = target: T1, BTK (Homo sapiens, UniProt Q06187); experiment: Z'-LYTE kinase inhibition assay (Invitrogen), BTK; assay type: biochemical; settings: for inhibition at 0.1 µM: compound at 100 nM, [ATP] = Km
T1 construct: purchased Invitrogen
Description: (§1) Inhibitory activities of compounds against BTK, EGFR and EGFR mutants (EGFR L858R/T790M) were measured by Invitrogen using Z′-LYTE® Method as briefly described in the following.
(§2) Test Compounds are screened in 1% DMSO (final) in the well. For 10 point titrations, 3-fold serial dilutions are conducted from the starting concentration. All ATP Solutions are diluted to a 4× working concentration in Kinase Buffer (50 mM HEPES pH 7.5, 0.01% BRIJ-35, 10 mM MgCl2, 1 mM EGTA). Peptide/Kinase Mixtures are diluted to a 2× working concentration in the appropriate Kinase Buffers as described below.
(v) Peptide/Kinase Mixtures for measurement of BTK:
The 2×BTK/Tyr 01 mixture is prepared in 50 mM HEPES pH 7.5, 0.01% BRIJ-35, 10 mM MgCl2, 1 mM EGTA. The final 10 μL Kinase Reaction consists of 1.04-10.4 ng BTK and 2 μM Tyr 01 in 50 mM HEPES pH 7.5, 0.01% BRIJ-35, 10 mM MgCl2, 1 mM EGTA. After the 1 hour Kinase Reaction incubation, 5 μL of a 1:256 dilution of Development Reagent B is added.
(§3) Reaction starts by 30-second shaking of mixture consisting of 2.5 μL 4× test compound, 5 μL 2× kinase reaction mixture and 2.5 μL 4×ATP Solution on Bar-coded Corning, low volume NBS, black 384-well plate (Corning Cat. #3676). Then the mixture is incubated for 60-minute at room temperature for the kinase reaction, followed by addition of 5 μL of a 1:1024 dilution of development reagent A and 30-second plate shake. The mixture is then incubated for another 60-minute at room temperature for development reaction. Finally fluorescence is read by plate reader. […] The scale utilized in Tables 2 and 3 is as follows: ++ more than 50% inhibition and + less than 50% inhibition.
(§4) To determine IC50 of a compound against EGFR or EGFR mutants, a series of concentrations of the compound were tested for the inhibition. IC50 was calculated by plotting the concentration of compound vs the percentage of inhibition in treated wells using GraphPad Prism 5. […] The scale utilized in Table 4 is as follows: ++ less than 100 nM and + greater than 100 nM.

[2] = tested on: A549 cells; experiment: MTT cell growth inhibition assay, A549; assay type: cell-based; settings: Homo sapiens, A549 cells (KRAS mutation), 72 h
Description: (§5) Inhibition of cell growth by compounds was measured using MTT assay (Mosmann, T., Journal of Immunological Methods, 1983, 65, 55-63). Tumor cell lines were purchased from ATCC (American Type Culture Collection, Manassas, Va.). All cell lines were maintained in RPMI 1640 (Hyclone) supplemented with 10% fetal bovine serum (FBS, Hyclone), glutamine (2 mM, Hyclone), and antibiotics (penicillin 100 U/mL and streptomycin 50 μg/mL) at 37° C. in a humidified atmosphere of 5% CO2 in air. Taxol (as a positive control, Sigma) and compounds were dissolved in DMSO (Sigma), and the final concentration of DMSO in the medium was 1%. Tumor cells were plated in 96-well plates at densities of about 4000 cells/well of a 96-well plate and allowed to adhere/grow for 24 h. They were then treated with various concentrations of drug for 72 h. 3-(4,5-Dimethylthiazol-2-yl)-2,5-diphenyltetrazolium bromide (MTT, Sigma) was used to determine the number of viable cells at the time of compound addition and the number of cells remaining after 72 h compound exposure. The number of cells remaining after 72 h was compared to the number of viable cells at the time of compound addition by measuring the absorbance at 570 nm, allowing for the calculation of growth inhibition.
(§6) All concentrations of compounds were tested in triplicate and controls were averaged over 4 wells. IC50 was calculated by plotting the concentration of compound vs the percentage of inhibition in treated wells using GraphPad Prism 5.
(§7) Tables 5 show IC50 values of several compounds of the invention in A549, A431, H1299, and H1975 human cancer cells. A549 cells have a mutation on KRAS, H3255 cells have L858R mutation, and H1975 cells have double EGFR mutations (L858R/T790M). The scale utilized in Table 5 is as follows: +++ less than 100 nM; ++ between 100 nM and 500 nM; and + greater than 500 nM.

[3] = tested on: H1975 cells; experiment: MTT cell growth inhibition assay, H1975; assay type: cell-based; settings: Homo sapiens, NCI-H1975, H1975 cells (EGFR L858R/T790M), 72 h
Description: as §5, §6, §7

[4] = tested on: A431 cells; experiment: MTT cell growth inhibition assay, A431; assay type: cell-based; settings: Homo sapiens, A-431, 72 h
Description: as §5, §6, §7

[5] = target: T2, EGFR (ErbB1) T790M L858R (Homo sapiens, UniProt P00533, L858R/T790M); experiment: Z'-LYTE kinase inhibition assay (Invitrogen), EGFR L858R/T790M; assay type: biochemical; settings: for inhibition at 0.1 µM: compound at 100 nM, [ATP] = Km
T2 construct: purchased Invitrogen
Description: as §1, §2
(iv) Peptide/Kinase Mixtures for measurement of EGFR (ErbB1) T790M L858R:
The 2×EGFR (ErbB1) T790M L858R/Tyr 04 mixture is prepared in 50 mM HEPES pH 6.5, 0.01% BRIJ-35, 10 mM MgCl2, 1 mM EGTA, 0.02% NaN3. The final 10 μL Kinase Reaction consists of 0.38-4.22 ng EGFR (ErbB1) T790M L858R and 2 μM Tyr 04 in 50 mM HEPES pH 7.0, 0.01% BRIJ-35, 10 mM MgCl2, 1 mM EGTA, 0.01% NaN3. After the 1 hour Kinase Reaction incubation, 5 μL of a 1:64 dilution of Development Reagent B is added.
as §3, §4

[6] = target: T3, EGFR (ErbB1) (Homo sapiens, UniProt P00533); experiment: Z'-LYTE kinase inhibition assay (Invitrogen), EGFR; assay type: biochemical; settings: for inhibition at 0.1 µM: compound at 100 nM, [ATP] = Km
T3 construct: purchased Invitrogen
Description: as §1, §2
(i) Peptide/Kinase Mixtures for measurement of EGFR (ErbB1):
The 2×EGFR (ErbB1)/Tyr 04 mixture is prepared in 50 mM HEPES pH 7.5, 0.01% BRIJ-35, 10 mM MgCl2, 4 mM MnCl2, 1 mM EGTA, 2 mMDTT. The final 10 μL Kinase Reaction consists of 1.1-5.25 ng EGFR (ErbB1) and 2 μM Tyr 04 in 50 mM HEPES pH 7.5, 0.01% BRIJ-35, 10 mM MgCl2, 2 mM MnCl2, 1 mM EGTA, 1 mM DTT. After the 1 hour Kinase Reaction incubation, 5 μL of a 1:64 dilution of DevelopmentReagent B is added.
as §3, §4

[7] = tested on: H3255 cells; experiment: MTT cell growth inhibition assay, H3255; assay type: cell-based; settings: Homo sapiens, NCI-H3255, H3255 cells (L858R mutation), 72 h
Description: as §5, §6, §7

T3 sequence (P00533 25-1210): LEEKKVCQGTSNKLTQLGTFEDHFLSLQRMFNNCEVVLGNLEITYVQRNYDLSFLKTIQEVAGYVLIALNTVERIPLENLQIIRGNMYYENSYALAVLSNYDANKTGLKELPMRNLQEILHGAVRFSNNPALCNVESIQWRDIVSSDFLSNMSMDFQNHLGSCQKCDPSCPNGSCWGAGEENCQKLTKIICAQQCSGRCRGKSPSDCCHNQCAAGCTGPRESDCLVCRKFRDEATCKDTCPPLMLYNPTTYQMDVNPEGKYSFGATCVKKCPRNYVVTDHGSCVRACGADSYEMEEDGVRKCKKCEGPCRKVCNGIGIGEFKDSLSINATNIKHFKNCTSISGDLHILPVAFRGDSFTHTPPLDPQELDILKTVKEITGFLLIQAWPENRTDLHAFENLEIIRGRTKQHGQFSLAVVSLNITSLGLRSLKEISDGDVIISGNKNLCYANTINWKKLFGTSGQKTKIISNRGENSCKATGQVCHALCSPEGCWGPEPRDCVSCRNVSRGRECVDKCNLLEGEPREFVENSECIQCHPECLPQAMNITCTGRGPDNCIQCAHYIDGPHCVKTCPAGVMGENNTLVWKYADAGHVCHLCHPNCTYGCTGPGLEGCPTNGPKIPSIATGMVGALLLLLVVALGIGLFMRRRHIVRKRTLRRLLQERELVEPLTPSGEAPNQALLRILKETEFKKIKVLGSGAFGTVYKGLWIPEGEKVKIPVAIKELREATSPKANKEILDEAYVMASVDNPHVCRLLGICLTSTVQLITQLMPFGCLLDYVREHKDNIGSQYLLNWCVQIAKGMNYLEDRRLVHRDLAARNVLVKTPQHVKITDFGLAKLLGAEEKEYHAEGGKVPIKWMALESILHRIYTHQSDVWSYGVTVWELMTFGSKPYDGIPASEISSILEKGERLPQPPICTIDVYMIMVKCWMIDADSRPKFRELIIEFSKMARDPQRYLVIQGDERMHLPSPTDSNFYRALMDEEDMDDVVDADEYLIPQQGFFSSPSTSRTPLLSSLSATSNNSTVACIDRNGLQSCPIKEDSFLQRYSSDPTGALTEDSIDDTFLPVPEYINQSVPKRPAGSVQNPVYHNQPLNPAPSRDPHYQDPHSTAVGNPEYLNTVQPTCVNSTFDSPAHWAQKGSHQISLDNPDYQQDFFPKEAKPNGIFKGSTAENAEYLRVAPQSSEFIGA
T2 sequence (P00533 25-1210 T790M/L858R): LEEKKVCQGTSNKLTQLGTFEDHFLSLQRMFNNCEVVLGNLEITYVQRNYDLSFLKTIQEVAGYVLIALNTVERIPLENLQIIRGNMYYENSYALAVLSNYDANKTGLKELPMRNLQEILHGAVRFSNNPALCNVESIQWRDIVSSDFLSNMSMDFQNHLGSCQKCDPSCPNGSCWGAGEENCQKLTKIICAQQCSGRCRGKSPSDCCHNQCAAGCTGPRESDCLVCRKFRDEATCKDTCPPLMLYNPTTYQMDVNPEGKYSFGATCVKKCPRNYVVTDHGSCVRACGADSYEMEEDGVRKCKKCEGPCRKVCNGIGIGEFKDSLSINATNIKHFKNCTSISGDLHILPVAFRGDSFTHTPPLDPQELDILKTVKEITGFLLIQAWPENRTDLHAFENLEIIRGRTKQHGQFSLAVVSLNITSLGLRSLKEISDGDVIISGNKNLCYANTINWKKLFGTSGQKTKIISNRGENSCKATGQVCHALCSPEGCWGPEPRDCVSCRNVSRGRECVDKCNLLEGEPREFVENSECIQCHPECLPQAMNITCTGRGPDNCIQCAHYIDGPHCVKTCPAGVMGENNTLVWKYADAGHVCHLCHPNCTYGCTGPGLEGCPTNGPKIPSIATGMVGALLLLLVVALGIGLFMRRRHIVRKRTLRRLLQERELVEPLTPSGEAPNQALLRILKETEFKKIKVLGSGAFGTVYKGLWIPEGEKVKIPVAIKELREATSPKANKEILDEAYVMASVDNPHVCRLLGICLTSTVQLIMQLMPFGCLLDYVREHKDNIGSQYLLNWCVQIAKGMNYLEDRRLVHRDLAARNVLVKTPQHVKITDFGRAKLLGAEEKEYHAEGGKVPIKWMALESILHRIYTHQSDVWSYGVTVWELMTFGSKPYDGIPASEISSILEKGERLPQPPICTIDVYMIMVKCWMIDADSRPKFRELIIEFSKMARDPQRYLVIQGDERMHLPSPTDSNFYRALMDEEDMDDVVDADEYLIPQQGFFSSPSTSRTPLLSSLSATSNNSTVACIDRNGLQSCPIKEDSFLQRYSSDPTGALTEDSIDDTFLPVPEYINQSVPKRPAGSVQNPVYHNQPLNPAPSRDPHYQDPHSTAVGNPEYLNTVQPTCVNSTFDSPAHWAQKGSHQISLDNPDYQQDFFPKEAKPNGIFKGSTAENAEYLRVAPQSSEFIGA
T1 sequence (Q06187 whole entry): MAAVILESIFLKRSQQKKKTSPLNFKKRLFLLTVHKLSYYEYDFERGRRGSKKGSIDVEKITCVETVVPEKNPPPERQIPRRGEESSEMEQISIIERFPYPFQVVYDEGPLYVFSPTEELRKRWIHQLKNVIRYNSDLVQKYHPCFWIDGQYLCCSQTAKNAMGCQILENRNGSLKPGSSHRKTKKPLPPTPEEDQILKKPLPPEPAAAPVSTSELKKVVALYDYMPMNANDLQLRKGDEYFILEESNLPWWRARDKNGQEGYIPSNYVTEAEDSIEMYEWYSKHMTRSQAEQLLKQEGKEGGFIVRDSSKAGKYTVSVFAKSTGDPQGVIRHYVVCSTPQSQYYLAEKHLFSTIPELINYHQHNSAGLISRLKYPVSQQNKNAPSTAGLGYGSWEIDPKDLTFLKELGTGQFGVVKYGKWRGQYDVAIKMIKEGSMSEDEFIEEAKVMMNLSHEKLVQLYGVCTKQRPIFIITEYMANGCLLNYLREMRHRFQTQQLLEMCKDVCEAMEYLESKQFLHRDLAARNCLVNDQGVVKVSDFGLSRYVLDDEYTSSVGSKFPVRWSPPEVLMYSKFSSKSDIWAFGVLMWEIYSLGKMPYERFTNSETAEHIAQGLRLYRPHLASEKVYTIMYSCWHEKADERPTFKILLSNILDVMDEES

| SMILES | inhibition at 0.1 µM [1] | IC50 [2] | IC50 [3] | IC50 [4] | IC50 [1] | IC50 [5] | inhibition at 0.1 µM [5] | IC50 [6] | inhibition at 0.1 µM [6] | IC50 [7] | inhibition at 0.0137 µM ([5]; compound at 13.7 nM, 10 μM of ATP) |
| --- | --- | --- | --- | --- | --- | --- | --- | --- | --- | --- | --- |
| C=CC(=O)Nc1cc(Nc2ncc3cccc(-c4cccc(F)c4)c3n2)c(OC)cc1N1CCC(N(C)C)C1 (stereo not drawn) [Example C023, N-(2-(3-(dimethylamino)pyrrolidin-1-yl)-5-((8-(3-fluorophenyl)quinazolin-2-yl)amino)-4-methoxyphenyl)acrylamide] | > 50% | > 500 nM | < 100 nM | < 100 nM | – | – | – | – | – | – | – |
| C=CC(=O)Nc1cc(Nc2ncc3cccc(OC)c3n2)ccc1N(C)CCN(C)C [Example C003, N-(2-((2-(dimethylamino)ethyl)(methyl)amino)-5-((8-methoxyquinazolin-2-yl)amino)phenyl)acrylamide] | < 50% | > 500 nM | < 100 nM | 100 to 500 nM | – | – | < 50% | – | – | – | < 50% |
| C=CC(=O)Nc1cc(Nc2ncc3cccc(Cl)c3n2)ccc1N(C)CCN(C)C [Example C002, N-(5-((8-chloroquinazolin-2-yl)amino)-2-((2-(dimethylamino)ethyl)(methyl)amino)phenyl) acrylamide] | – | > 500 nM | < 100 nM | 100 to 500 nM | > 100 nM | > 100 nM | – | > 100 nM | – | – | – |
| C=CC(=O)Nc1cc(Nc2ncc3cccc(-c4cccc(F)c4)c3n2)c(OC)cc1OC1CCN(C)C1 (stereo not drawn) [Example C019, N-(5-((8-(3-fluorophenyl)quinazolin-2-yl)amino)-4-methoxy-2-((1-methylpyrrolidin-3-yl)oxy)phenyl)acrylamide] | > 50% | 100 to 500 nM | < 100 nM | – | – | – | > 50% | – | > 50% | – | – |
| C=CC(=O)Nc1cc(Nc2ncc3cccc(-c4cncc(F)c4)c3n2)ccc1N(C)CCN(C)C [Example C022, N-(2-((2-(dimethylamino)ethyl)(methyl)amino)-5-((8-(5-fluoropyridin-3-yl)quinazolin-2-yl)amino)phenyl)acrylamide] | > 50% | 100 to 500 nM | < 100 nM | < 100 nM | – | – | > 50% | – | < 50% | – | – |
| C=CC(=O)Nc1cc(Nc2ncc3cccc(-c4cccc(F)c4)c3n2)c(OC)cc1N(C)CCN(C)C [Example C018, N-(2-((2-(dimethylamino)ethyl)(methyl)amino)-5-((8-(3-fluorophenyl)quinazolin-2-yl)amino)-4-methoxyphenyl)acrylamide] | > 50% | 100 to 500 nM | < 100 nM | – | – | – | > 50% | – | > 50% | – | – |
| C=CC(=O)Nc1cc(Nc2ncc3cccc(-c4cccc(F)c4)c3n2)ccc1N1CC(N(C)C)C1 [Example C025, N-(2-(3-(dimethylamino)azetidin-1-yl)-5-((8-(3-fluorophenyl)quinazolin-2-yl)amino)phenyl)acrylamide] | > 50% | 100 to 500 nM | < 100 nM | < 100 nM | – | – | – | – | – | – | – |

Continued, values first:

| inhibition at 0.1 µM [1] | IC50 [2] | IC50 [3] | IC50 [4] | IC50 [1] | IC50 [5] | inhibition at 0.1 µM [5] | IC50 [6] | inhibition at 0.1 µM [6] | IC50 [7] | inhibition at 0.0137 µM ([5]; compound at 13.7 nM, 10 μM of ATP) | SMILES |
| --- | --- | --- | --- | --- | --- | --- | --- | --- | --- | --- | --- |
| > 50% | < 100 nM | < 100 nM | < 100 nM | < 100 nM | < 100 nM | > 50% | > 100 nM | > 50% | < 100 nM | – | C=CC(=O)Nc1cc(Nc2ncc3cccc(-c4ccccc4)c3n2)ccc1N(C)CCN(C)C [Example C004, N-(2-((2-(dimethylamino)ethyl)(methyl)amino)-5-((8-phenylquinazolin-2-yl)amino)phenyl)acrylamide] |
| > 50% | 100 to 500 nM | < 100 nM | – | – | – | > 50% | – | > 50% | – | – | C=CC(=O)Nc1cc(Nc2ncc3cccc(-c4cccc(Cl)c4)c3n2)c(OC)cc1N(C)CCN(C)C [Example C017, N-(5-((8-(3-chlorophenyl)quinazolin-2-yl)amino)-2-((2-(dimethylamino)ethyl)(methyl)amino)-4-methoxyphenyl)acrylamide] |
| > 50% | 100 to 500 nM | < 100 nM | < 100 nM | – | – | – | – | – | – | – | C=CC(=O)Nc1cc(Nc2ncc3cccc(-c4cccc(F)c4)c3n2)ccc1N1CCC(N(C)C)C1 (stereo not drawn) [Example C024, N-(2-(3-(dimethylamino)pyrrolidin-1-yl)-5-((8-(3-fluorophenyl)quinazolin-2-yl)amino)phenyl)acrylamide] |
| > 50% | 100 to 500 nM | < 100 nM | – | – | – | > 50% | – | > 50% | – | – | C=CC(=O)Nc1cc(Nc2ncc3cccc(-c4cccc(Cl)c4)c3n2)c(OC)cc1OC1CCN(C)C1 (stereo not drawn) [Example C020, N-(5-((8-(3-chlorophenyl)quinazolin-2-yl)amino)-4-methoxy-2-((1-methylpyrrolidin-3-yl)oxy)phenyl)acrylamide] |
| > 50% | 100 to 500 nM | < 100 nM | < 100 nM | – | < 100 nM | > 50% | > 100 nM | > 50% | < 100 nM | – | C=CC(=O)Nc1cc(Nc2ncc3cccc(-c4cccc(Cl)c4)c3n2)ccc1N(C)CCN(C)C [Example C005, N-(5-((8-(3-chlorophenyl)quinazolin-2-yl)amino)-2-((2-(dimethylamino)ethyl)(methyl)amino)phenyl) acrylamide] |
